Data published in patent US6610721B2, “Imidazo heterocyclic compounds” (Novo Nordisk A/S, priority 2000, dated 2003).
Where a name gives a salt, the structure may show the parent alone.

| SMILES | melting point [°C] |
| --- | --- |
| COc1cc(C#N)ccc1OCC1CCCc2[nH]cnc21 (centres unmarked) (as salt: hydrochloride) | 193 to 195 |
| Clc1ccc(OCC2CCCc3[nH]cnc32)cc1 (centres unmarked) (as salt: hydrochloride) | 210 to 212 |
| FC(F)(F)c1ccc(OCC2CCCc3[nH]cnc32)cc1 (centres unmarked) (as salt: hydrochloride) | 242 to 244 |
| N#Cc1ccc(OCC2CCCCc3[nH]cnc32)cc1 (centres unmarked) (as salt: hydrochloride) [Example 57, 4-(1,4,5,6,7,8-Hexahydrocycloheptaimidazol-4-ylmethoxy)benzonitrile, Hydrochloride] | 232 to 235 |
| N#Cc1ccc(OCC2CCCc3[nH]cnc32)c(Cl)c1 (centres unmarked) (as salt: hydrochloride) | 225 to 227 |
| FC(F)(F)Oc1ccc(OCC2CCCc3[nH]cnc32)cc1 (centres unmarked) (as salt: hydrochloride) [Example 58, 4-(4-Trifluoromethoxyphenoxymethyl)-4,5,6,7-tetrahydro-1H-benzimidazole, Hydrochloride] | 202 to 209 |
| Cl.Clc1ccccc1OCC1CCc2[nH]cnc2C1 (centres unmarked) | 224 to 226 |
| O=C(c1ccc(OCC2CCCc3[nH]cnc32)cc1)C1CC1 (centres unmarked) (as salt: hydrochloride) [Example 63, Cyclopropyl-[4-(4,5,6,7-tetrahydro-1H-benzimidazol-4-ylmethoxy)phenyl]methanone, hydrochloride] | 211 to 213 |
| Cl.Fc1ccccc1OCC1CCc2[nH]cnc2C1 (centres unmarked) | 192 to 194 |
| Cl.Clc1ccccc1OCC1CCCc2[nH]cnc21 (centres unmarked) | 207 to 209 |

Further lines, results first:

| melting point [°C] | SMILES |
| --- | --- |
| 170 to 171 | Cl.FC(F)(F)Oc1cccc(OCC2CCc3[nH]cnc3C2)c1 (centres unmarked) |
| 165 to 167 | Cl.c1ccc(-c2cccc(OCC3CCc4[nH]cnc4C3)c2)cc1 (centres unmarked) |
| 190 to 192 | Cc1cc(C#N)cc(C)c1OCC1CCCc2[nH]cnc21 (centres unmarked) (as salt: hydrochloride) |
| 237 to 240 | O=C1CCCc2c(OCC3CCCc4[nH]cnc43)cccc21 (centres unmarked) (as salt: hydrochloride) |
